Laboratory results published in patent US20260226114A1, “PEPTIDE FOR THE TREATMENT OF DISEASES ASSOCIATED WITH APOLIPOPROTEIN AI OR TRANSTHYRETIN INVOLVEMENT” (CENTRO DE INGENIERÍA GENÉTICA Y BIOTECNOLOGÍA, priority 2022, published 2026).
No end group written: not given here.

Assays:
[1] = test system: patients with ischemic heart disease; experiment: Treatment of patients with ischemic heart disease and high blood pressure; type: in vivo, human; settings: six patients, 1 mg every 12 hours intravenously for seven days
Experimental: It is exemplified with the results of six patients. They presented ischemic heart disease, associated with high blood pressure, which produced a state of severity. They were treated in the Intermediate Care Unit (IMCU) of the “Luis Diaz Soto” hospital in Havana. These patients were treated with a pharmaceutical composition comprising the peptide identified as SEQ ID NO: 1, so that a peptide dose of 1 mg every 12 hours was administered intravenously for seven days. In addition, they received the standard therapy needed for these cases.

[2] = test system: patients with type II diabetes; experiment: Treatment of patients with decompensated type II diabetes; type: in vivo, human; settings: five patients, 1 mg every 12 hours intravenously for eight days
Experimental: It is exemplified with ten patients who had diabetic decompensation and reached a state of severity, that let them to be treated in the ICU of the hospital “Luis Díaz Soto” in Havana. Five of these patients were treated with a pharmaceutical composition comprising the peptide identified as SEQ ID NO: 1, so that a peptide dose of 1 mg every 12 hours was administered intravenously for eight days. In addition, they received the standard therapy needed for these cases.

patients with RA = settings: cited from earlier work

SIDLKDKYKNIGAKLVQLVANNTNEEA [SEQ ID NO: 1]
side effects (clinical and imaging evaluation, blood biochemistry, differential blood count) [1]: No side effects were observed
side effects (clinical and imaging evaluation, blood biochemistry, differential blood count) [2]: No side effects were observed
safety (patients with RA): proved to be safe
